Data reported in patent US7138361B2, “Herbicidal heterocycles” (E. I. du Pont de Nemours and Company, priority 2000, dated 2006).

Experiments:
Format in all cases: in vivo
[1] = system: common ragweed (Ambrosia elatior); experiment: Test C preemergence; details: preemergence; for Plant response rating (0 to 100), Ragweed, Common: Rate 500 g/ha, visual evaluation after 12 to 14 days
In short: (§1)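 Plants held in greenhouse for 12–14 days post-application are scored by eye against controls on a 0–100 control scale. Application timing: preemergence on sown seed, or postemergence on 2–18 cm plants.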

[2] = system: yellow nutsedge (Cyperus esculentus); experiment: Test C preemergence; details: for Plant response rating (0 to 100), Nutsedge: Rate 500 g/ha, visual evaluation after 12 to 14 days
In short: as §1

[3] = system: goosegrass (Eleusine indica); experiment: Test C preemergence; details: for Plant response rating (0 to 100), Goosegrass: visual evaluation after 12 to 14 days
In short: as §1

Nightshade = experiment: Test C preemergence
[4] = system: morningglory (Ipomoea hederacea); experiment: Test C preemergence; details: for Plant response rating (0 to 100), Morningglory: Rate 500 g/ha, visual evaluation after 12 to 14 days
In short: as §1

corn (Zea mays) [5] = experiment: Test C preemergence; details: for Plant response rating (0 to 100), Corn: visual evaluation after 12 to 14 days
In short: as §1

[6] = system: velvetleaf (Abutilon theophrasti); experiment: Test C preemergence; details: preemergence; for Plant response rating (0 to 100), Velvetleaf: Rate 500 g/ha, visual evaluation after 12 to 14 days
In short: as §1

[7] = system: lambsquarters (Chenopodium album); experiment: Test C preemergence; details: for Plant response rating, Lambsquarters: scale 0 to 100, 0 no effect, 100 complete control; for Plant response rating (0 to 100), Lambsquarters: Rate 500 g/ha, visual evaluation after 12 to 14 days
In short: as §1

[8] = system: johnsongrass (Sorghum halepense); experiment: Test C preemergence; details: for Plant response rating (0 to 100), Johnsongrass: visual evaluation after 12 to 14 days
In short: as §1

Sunflower = experiment: Test C preemergence; details: Rate 500 g/ha, visual evaluation after 12 to 14 days
[9] = system: giant foxtail (Setaria faberii); experiment: Test B postemergence; details: 13 to 15 days
In short: (§2)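 Ratings on a 0 to 100 visual scale (100 complete control) compare treated plants with controls 13 to 15 days after application. Treatments were pre- or postemergence sprays of compound in non-phytotoxic solvent with surfactant.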

wild oat (Avena fatua) = experiment: Test B postemergence; details: 13 to 15 days
In short: as §2

[10] = system: crabgrass (Digitaria sanguinalis); experiment: Test B postemergence; details: 13 to 15 days
In short: as §2

[11] = system: Surinam grass (Brachiaria decumbens); experiment: Test B postemergence; details: 13 to 15 days
In short: as §2

[12] = system: barnyardgrass (Echinochloa crus-galli); experiment: Test B postemergence; details: 13 to 15 days
In short: as §2

corn (Zea mays) [13] = experiment: Test B postemergence; details: 13 to 15 days
In short: as §2

[14] = system: velvetleaf (Abutilon theophrasti); experiment: Test B postemergence; details: 13 to 15 days
In short: as §2

[15] = system: pigweed (Amaranthus retroflexus); experiment: Test B postemergence; details: 13 to 15 days
In short: as §2

[16] = system: cocklebur (Xanthium strumarium); experiment: Test B postemergence; details: 13 to 15 days
In short: as §2

[17] = system: morning glory (Ipomoea hederacea); experiment: Test B postemergence; details: 13 to 15 days
In short: as §2

[18] = system: wheat (Triticum aestivum); experiment: Test B postemergence; details: 13 to 15 days
In short: as §2

[19] = Rate 125 g/ha, scale 0 to 100, 0 no effect, 100 complete control
[20] = Rate 250 g/ha, scale 0 to 100, 0 no effect, 100 complete control
[21] = Rate 62 g/ha, scale 0 to 100, 0 no effect, 100 complete control
[22] = preemergence, Rate 125 g/ha, scale 0 to 100, 0 no effect, 100 complete control
[23] = preemergence, Rate 250 g/ha, scale 0 to 100, 0 no effect, 100 complete control
[24] = Rate 125 g/ha, scale 0 (no effect) to 100 (complete control)
[25] = Rate 500 g/ha, scale 0 to 100, 0 is no effect, 100 is complete control
[26] = preemergence, Rate 31 g/ha, scale 0 to 100

CCC(C)c1ccn(C2OCN(c3cccc(OC(F)(F)F)c3)C2=O)n1 (stereo not drawn) [Compound 67]
Plant response rating (0 to 100), Ragweed, Common [1]: 70 | Plant response rating, Ragweed, Common [1, 19]: 20 | Plant response rating, Ragweed, Common [1, 20]: 70 | Plant response rating, Nutsedge [2, 21]: 0 | Plant response rating (0 to 100), Nutsedge ([2]; preemergence): 20 | Plant response rating, Nutsedge [2, 22]: 40 | Plant response rating, Nutsedge [2, 23]: 0 | Plant response rating, Goosegrass [3, 21]: 100 | Plant response rating (0 to 100), Goosegrass ([3]; preemergence, Rate 250 g/ha): 100 | Plant response rating (0 to 100), Goosegrass ([3]; preemergence, Rate 500 g/ha): 100 | Plant response rating, Goosegrass [3, 22]: 100 | Plant response rating, Nightshade (Nightshade; [21]): 0 | Plant response rating, Nightshade (Nightshade; [19]): 70 | Plant response rating, Nightshade (Nightshade; [20]): 80 | Plant response rating, Morningglory [4, 21]: 0 | Plant response rating (0 to 100), Morningglory ([4]; preemergence): 20 | Plant response rating, Morningglory [4, 22]: 0 | Plant response rating, Morningglory [4, 23]: 0 | Plant response rating, Corn (corn (Zea mays) [5]; [21]): 0 | Plant response rating (0 to 100), Corn (corn (Zea mays) [5]; preemergence, Rate 250 g/ha): 0 | Plant response rating (0 to 100), Corn (corn (Zea mays) [5]; preemergence, Rate 500 g/ha): 100 | Plant response rating, Corn (corn (Zea mays) [5]; [22]): 0 | Plant response rating (0 to 100), Velvetleaf [6]: 30 | Plant response rating, Velvetleaf [6, 19]: 50 | Plant response rating, Velvetleaf [6, 20]: 0 | Plant response rating, Lambsquarters ([7]; Rate 62 g/ha): 100 | Plant response rating (0 to 100), Lambsquarters ([7]; preemergence): 100 | Plant response rating, Lambsquarters ([7]; preemergence, Rate 125 g/ha): 100 | Plant response rating, Lambsquarters ([7]; preemergence, Rate 250 g/ha): 100 | Plant response rating, Johnsongrass [8, 21]: 30 | Plant response rating (0 to 100), Johnsongrass ([8]; preemergence, Rate 250 g/ha): 100 | Plant response rating (0 to 100), Johnsongrass ([8]; preemergence, Rate 500 g/ha): 100 | Plant response rating, Johnsongrass [8, 22]: 60 | Plant response rating (0 to 100), Sunflower (Sunflower): 30 | Plant response rating, Foxtail, Giant [9, 24]: 20 | Plant response rating, Foxtail, Giant [9, 25]: 40 | Plant response rating, Wild Oat (wild oat (Avena fatua); [24]): 0 | Plant response rating, Wild Oat (wild oat (Avena fatua); [25]): 0 | Plant response rating, Crabgrass [10, 24]: 50 | Plant response rating, Crabgrass [10, 25]: 100 | Plant response rating, Surinam grass [11, 24]: 30 | Plant response rating, Surinam grass [11, 25]: 30 | Plant response rating, Barnyardgrass [12, 24]: 90 | Plant response rating, Barnyardgrass [12, 25]: 100 | Plant response rating, Corn (corn (Zea mays) [13]; [24]): 0 | Plant response rating, Corn (corn (Zea mays) [13]; [25]): 0 | Plant response rating, Velvetleaf [14, 24]: 0 | Plant response rating, Velvetleaf [14, 25]: 20 | Plant response rating, Pigweed [15, 24]: 0 | Plant response rating, Pigweed [15, 25]: 0 | Plant response rating, Cocklebur [16, 24]: 0 | Plant response rating, Cocklebur [16, 25]: 60 | Plant response rating, Morningglory [17, 24]: 0 | Plant response rating, Morningglory [17, 25]: 0 | Plant response rating, Wheat [18, 24]: 0 | Plant response rating, Wheat [18, 25]: 0

CC(C)Oc1cccc(N2CCC(n3ccc(C(C)(C)C)n3)C2=O)c1 (stereo not drawn) [Compound 70]
Plant response rating, Ragweed, Common ([1]; Rate 31 g/ha, scale 0 to 100): 0 | Plant response rating (0 to 100), Ragweed, Common [1]: 100 | Plant response rating, Ragweed, Common [1, 19]: 60 | Plant response rating, Ragweed, Common [1, 20]: 80 | Plant response rating, Nutsedge [2, 21]: 0 | Plant response rating, Nutsedge [2, 26]: 0 | Plant response rating (0 to 100), Nutsedge ([2]; preemergence): 0 | Plant response rating, Nutsedge [2, 22]: 0 | Plant response rating, Nutsedge [2, 23]: 0 | Plant response rating, Goosegrass [3, 21]: 90 | Plant response rating, Goosegrass [3, 26]: 30 | Plant response rating (0 to 100), Goosegrass ([3]; preemergence, Rate 250 g/ha): 100 | Plant response rating (0 to 100), Goosegrass ([3]; preemergence, Rate 500 g/ha): 100 | Plant response rating, Goosegrass [3, 22]: 100 | Plant response rating, Nightshade (Nightshade; Rate 31 g/ha, scale 0 to 100): 20 | Plant response rating, Nightshade (Nightshade; [21]): 30 | Plant response rating, Nightshade (Nightshade; [19]): 50 | Plant response rating, Nightshade (Nightshade; [20]): 70 | Plant response rating, Morningglory [4, 21]: 20 | Plant response rating, Morningglory [4, 26]: 0 | Plant response rating (0 to 100), Morningglory ([4]; preemergence): 40 | Plant response rating, Morningglory [4, 22]: 0 | Plant response rating, Morningglory [4, 23]: 0 | Plant response rating, Corn (corn (Zea mays) [5]; [21]): 0 | Plant response rating, Corn (corn (Zea mays) [5]; [26]): 0 | Plant response rating (0 to 100), Corn (corn (Zea mays) [5]; preemergence, Rate 250 g/ha): 0 | Plant response rating (0 to 100), Corn (corn (Zea mays) [5]; preemergence, Rate 500 g/ha): 20 | Plant response rating, Corn (corn (Zea mays) [5]; [22]): 0 | Plant response rating, Velvetleaf ([6]; Rate 31 g/ha, scale 0 to 100): 0 | Plant response rating (0 to 100), Velvetleaf [6]: 10 | Plant response rating, Velvetleaf [6, 19]: 0 | Plant response rating, Velvetleaf [6, 20]: 0 | Plant response rating, Lambsquarters ([7]; Rate 62 g/ha): 100 | Plant response rating (0 to 100), Lambsquarters ([7]; preemergence): 100 | Plant response rating, Lambsquarters ([7]; preemergence, Rate 125 g/ha): 100 | Plant response rating, Lambsquarters ([7]; preemergence, Rate 250 g/ha): 100 | Plant response rating, Johnsongrass [8, 21]: 0 | Plant response rating, Johnsongrass [8, 26]: 0 | Plant response rating (0 to 100), Johnsongrass ([8]; preemergence, Rate 250 g/ha): 50 | Plant response rating (0 to 100), Johnsongrass ([8]; preemergence, Rate 500 g/ha): 70 | Plant response rating, Johnsongrass [8, 22]: 10 | Plant response rating (0 to 100), Sunflower (Sunflower): 60 | Plant response rating, Foxtail, Giant [9, 24]: 0 | Plant response rating, Foxtail, Giant [9, 25]: 0 | Plant response rating, Wild Oat (wild oat (Avena fatua); [24]): 0 | Plant response rating, Wild Oat (wild oat (Avena fatua); [25]): 0 | Plant response rating, Crabgrass [10, 24]: 0 | Plant response rating, Crabgrass [10, 25]: 0 | Plant response rating, Surinam grass [11, 24]: 0 | Plant response rating, Surinam grass [11, 25]: 0 | Plant response rating, Barnyardgrass [12, 24]: 0 | Plant response rating, Barnyardgrass [12, 25]: 0 | Plant response rating, Corn (corn (Zea mays) [13]; [24]): 0 | Plant response rating, Corn (corn (Zea mays) [13]; [25]): 0 | Plant response rating, Velvetleaf [14, 24]: 0 | Plant response rating, Velvetleaf [14, 25]: 0 | Plant response rating, Pigweed [15, 24]: 0 | Plant response rating, Pigweed [15, 25]: 0 | Plant response rating, Cocklebur [16, 24]: 0 | Plant response rating, Cocklebur [16, 25]: 0 | Plant response rating, Morningglory [17, 24]: 30 | Plant response rating, Morningglory [17, 25]: 30 | Plant response rating, Wheat [18, 24]: 0 | Plant response rating, Wheat [18, 25]: 0
